PMC3145970, “Specific CLK Inhibitors from a Novel Chemotype for Regulation of Alternative Splicing” (Chemistry & Biology, 2011)
Like-named read-outs stand apart in the source and are kept apart here.

How the values were obtained:
Experiment in all cases: Thermal stability shift assay
Assay type in all cases: binding
MAP3K5 = target: T1, MAP3K5 (Homo sapiens, UniProt Q99683); details: read-out: Tm shift MAP3K5
T1 construct: purchased in-house (SGC Oxford thermal shift panel)
T1 sequence (Q99683 1-1374): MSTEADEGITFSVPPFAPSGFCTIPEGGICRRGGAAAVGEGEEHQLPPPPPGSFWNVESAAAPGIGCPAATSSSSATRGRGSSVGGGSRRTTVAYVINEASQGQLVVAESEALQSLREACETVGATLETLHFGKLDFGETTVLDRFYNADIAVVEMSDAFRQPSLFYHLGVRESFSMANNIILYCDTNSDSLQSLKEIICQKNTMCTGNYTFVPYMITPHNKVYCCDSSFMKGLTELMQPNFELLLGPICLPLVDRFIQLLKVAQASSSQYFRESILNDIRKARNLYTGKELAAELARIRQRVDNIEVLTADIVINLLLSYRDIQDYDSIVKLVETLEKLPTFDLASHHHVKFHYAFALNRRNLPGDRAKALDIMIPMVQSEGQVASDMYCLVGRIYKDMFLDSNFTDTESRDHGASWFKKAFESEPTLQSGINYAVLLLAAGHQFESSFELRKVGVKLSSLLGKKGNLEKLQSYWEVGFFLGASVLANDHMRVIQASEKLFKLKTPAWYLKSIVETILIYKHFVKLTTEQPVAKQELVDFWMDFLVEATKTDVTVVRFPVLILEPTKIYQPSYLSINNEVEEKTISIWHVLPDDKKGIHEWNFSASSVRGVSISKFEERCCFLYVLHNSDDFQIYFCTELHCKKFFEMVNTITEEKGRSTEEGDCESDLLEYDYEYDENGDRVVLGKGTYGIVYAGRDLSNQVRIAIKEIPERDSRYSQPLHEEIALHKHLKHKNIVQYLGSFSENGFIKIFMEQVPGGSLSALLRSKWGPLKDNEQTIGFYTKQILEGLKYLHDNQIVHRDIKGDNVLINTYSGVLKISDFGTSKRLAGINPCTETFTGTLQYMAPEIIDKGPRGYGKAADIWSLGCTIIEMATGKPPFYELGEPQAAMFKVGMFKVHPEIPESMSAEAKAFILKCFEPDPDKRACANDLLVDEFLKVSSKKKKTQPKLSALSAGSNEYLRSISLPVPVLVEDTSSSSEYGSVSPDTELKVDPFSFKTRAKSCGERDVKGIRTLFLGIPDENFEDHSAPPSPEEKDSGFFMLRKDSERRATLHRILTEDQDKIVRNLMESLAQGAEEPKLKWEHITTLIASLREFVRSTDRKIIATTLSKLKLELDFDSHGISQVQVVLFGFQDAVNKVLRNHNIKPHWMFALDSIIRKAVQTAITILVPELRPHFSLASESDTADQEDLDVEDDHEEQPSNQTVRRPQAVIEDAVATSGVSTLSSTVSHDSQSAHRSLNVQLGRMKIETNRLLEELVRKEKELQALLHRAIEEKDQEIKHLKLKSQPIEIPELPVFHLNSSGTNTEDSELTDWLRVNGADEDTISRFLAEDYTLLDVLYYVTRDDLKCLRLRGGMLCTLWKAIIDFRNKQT
Outline: (§1)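 Thermal denaturation is measured by SyproOrange fluorescence in a real-time PCR machine. Each sample holds 2 μM protein and 10 μM compound in 10 mM HEPES pH 7.5 with 500 mM NaCl.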

CDKL1 = CDKL1 (Homo sapiens, UniProt Q00532); details: read-out: Tm shift CDKL1
CDKL1, sequence (Q00532 whole entry): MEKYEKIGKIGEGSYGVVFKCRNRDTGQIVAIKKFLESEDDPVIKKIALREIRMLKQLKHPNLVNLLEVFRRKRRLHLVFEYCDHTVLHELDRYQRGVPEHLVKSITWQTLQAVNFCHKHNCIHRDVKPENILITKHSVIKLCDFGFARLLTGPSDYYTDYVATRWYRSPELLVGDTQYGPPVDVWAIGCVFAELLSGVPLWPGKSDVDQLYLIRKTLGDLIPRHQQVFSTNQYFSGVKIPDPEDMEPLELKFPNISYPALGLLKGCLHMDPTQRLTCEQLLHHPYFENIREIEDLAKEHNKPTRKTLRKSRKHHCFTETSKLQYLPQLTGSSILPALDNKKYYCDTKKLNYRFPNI
Outline: as §1

YSK1 = YSK1 (Homo sapiens, UniProt O00506); details: read-out: Tm shift YSK1
YSK1, sequence (O00506 whole entry): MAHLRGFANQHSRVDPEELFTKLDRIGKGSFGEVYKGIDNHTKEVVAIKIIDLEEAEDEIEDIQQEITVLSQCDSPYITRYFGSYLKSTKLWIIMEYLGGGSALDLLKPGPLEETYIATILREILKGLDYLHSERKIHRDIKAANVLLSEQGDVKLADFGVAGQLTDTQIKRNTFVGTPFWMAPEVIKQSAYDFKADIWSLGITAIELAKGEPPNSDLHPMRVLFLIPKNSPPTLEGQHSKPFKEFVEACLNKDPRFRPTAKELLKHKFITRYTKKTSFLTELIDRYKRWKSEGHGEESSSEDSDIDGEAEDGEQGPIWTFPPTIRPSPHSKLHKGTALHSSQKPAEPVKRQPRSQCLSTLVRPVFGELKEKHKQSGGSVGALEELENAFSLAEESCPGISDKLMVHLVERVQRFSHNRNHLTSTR
Outline: as §1

PLK4 = target: T2, PLK4 (Homo sapiens, UniProt O00444); details: read-out: Tm shift PLK4
T2 sequence (O00444 1-970): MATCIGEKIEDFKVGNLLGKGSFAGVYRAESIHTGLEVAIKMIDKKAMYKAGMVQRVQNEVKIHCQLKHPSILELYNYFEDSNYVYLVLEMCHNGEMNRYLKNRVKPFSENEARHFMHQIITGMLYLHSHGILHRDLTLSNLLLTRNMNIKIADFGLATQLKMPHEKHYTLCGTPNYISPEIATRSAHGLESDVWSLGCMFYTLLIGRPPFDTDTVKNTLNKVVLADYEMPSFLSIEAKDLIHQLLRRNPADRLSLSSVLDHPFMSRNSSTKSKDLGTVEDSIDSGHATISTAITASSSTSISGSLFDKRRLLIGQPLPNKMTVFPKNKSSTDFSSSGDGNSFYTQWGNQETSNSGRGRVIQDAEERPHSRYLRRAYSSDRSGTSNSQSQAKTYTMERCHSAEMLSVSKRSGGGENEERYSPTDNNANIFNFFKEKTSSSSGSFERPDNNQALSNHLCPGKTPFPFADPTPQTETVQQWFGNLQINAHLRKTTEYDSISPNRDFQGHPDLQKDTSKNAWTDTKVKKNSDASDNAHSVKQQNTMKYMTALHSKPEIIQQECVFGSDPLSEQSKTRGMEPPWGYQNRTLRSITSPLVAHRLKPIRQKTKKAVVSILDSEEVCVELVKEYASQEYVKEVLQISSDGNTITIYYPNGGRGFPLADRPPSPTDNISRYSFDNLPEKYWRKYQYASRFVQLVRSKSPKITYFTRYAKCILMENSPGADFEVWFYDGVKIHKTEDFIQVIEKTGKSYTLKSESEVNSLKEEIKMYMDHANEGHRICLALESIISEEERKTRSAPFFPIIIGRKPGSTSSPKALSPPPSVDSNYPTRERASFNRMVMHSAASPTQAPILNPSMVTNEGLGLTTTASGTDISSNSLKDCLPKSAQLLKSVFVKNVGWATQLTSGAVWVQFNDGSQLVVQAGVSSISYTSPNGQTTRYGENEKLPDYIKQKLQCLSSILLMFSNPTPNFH
Outline: as §1

DAPK3 = target: T3, DAPK3 (Homo sapiens, UniProt O43293); details: read-out: Tm shift DAPK3
T3 construct: purchased in-house (SGC Oxford thermal shift panel)
T3 sequence (O43293 whole entry): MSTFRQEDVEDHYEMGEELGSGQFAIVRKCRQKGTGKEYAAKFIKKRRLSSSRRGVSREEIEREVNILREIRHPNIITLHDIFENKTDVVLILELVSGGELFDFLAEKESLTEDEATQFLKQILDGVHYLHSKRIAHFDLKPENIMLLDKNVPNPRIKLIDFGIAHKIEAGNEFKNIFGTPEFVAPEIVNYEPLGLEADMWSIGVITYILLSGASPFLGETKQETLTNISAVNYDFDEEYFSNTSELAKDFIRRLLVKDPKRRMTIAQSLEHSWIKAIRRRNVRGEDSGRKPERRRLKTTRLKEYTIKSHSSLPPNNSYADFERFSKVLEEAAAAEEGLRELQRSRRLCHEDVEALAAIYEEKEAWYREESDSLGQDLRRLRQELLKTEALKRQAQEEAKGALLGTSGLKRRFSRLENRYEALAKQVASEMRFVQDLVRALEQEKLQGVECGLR
Outline: as §1

STK33 = STK33 (Homo sapiens, UniProt Q9BYT3); details: read-out: Tm shift STK33
STK33, sequence (Q9BYT3 whole entry): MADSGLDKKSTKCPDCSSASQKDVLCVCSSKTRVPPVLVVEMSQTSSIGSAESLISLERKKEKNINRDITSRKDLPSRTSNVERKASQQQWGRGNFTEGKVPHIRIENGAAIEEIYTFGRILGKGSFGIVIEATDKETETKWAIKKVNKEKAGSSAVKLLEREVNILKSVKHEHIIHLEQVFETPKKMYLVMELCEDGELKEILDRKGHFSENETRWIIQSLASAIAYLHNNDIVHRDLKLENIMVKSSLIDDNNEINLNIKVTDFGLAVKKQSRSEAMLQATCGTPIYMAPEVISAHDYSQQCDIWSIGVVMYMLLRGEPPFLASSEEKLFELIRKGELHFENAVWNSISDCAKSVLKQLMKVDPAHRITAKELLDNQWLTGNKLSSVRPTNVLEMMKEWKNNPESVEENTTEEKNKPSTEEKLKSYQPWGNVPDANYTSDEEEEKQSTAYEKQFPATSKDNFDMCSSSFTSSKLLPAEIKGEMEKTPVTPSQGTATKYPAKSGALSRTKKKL
Outline: as §1

AAK1 = AAK1 (Homo sapiens, UniProt Q2M2I8); details: read-out: Tm shift AAK1
AAK1, sequence (Q2M2I8 whole entry): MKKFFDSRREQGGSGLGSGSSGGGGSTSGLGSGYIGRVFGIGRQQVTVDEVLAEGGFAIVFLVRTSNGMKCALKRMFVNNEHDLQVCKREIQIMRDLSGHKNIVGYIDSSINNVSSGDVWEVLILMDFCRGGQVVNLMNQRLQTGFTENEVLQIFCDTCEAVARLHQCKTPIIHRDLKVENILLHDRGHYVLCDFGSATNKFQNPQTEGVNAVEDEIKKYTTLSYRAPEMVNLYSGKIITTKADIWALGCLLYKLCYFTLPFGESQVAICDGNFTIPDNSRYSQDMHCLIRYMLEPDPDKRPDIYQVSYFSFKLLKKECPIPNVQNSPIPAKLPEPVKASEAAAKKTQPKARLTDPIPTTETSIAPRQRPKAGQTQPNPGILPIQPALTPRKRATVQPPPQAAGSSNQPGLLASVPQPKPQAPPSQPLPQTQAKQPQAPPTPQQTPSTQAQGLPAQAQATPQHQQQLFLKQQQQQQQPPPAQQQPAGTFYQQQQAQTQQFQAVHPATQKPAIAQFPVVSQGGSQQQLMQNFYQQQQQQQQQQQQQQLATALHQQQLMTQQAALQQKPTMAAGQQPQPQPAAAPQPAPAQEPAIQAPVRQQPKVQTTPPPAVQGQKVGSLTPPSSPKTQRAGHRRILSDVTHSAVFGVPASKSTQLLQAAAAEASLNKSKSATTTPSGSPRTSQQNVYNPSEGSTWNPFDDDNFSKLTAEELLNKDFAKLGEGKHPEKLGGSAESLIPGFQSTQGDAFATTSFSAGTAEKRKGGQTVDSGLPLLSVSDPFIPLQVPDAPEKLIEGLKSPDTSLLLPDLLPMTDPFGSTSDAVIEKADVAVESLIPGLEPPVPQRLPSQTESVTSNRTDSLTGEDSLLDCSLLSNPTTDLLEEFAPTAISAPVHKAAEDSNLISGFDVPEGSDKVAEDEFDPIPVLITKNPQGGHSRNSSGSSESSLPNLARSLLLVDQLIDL
Outline: as §1

Row | ΔTm at 10 µM (MAP3K5; inhibitor 10 μM) [°C] | ΔTm at 10 µM (CDKL1; inhibitor 10 μM) [°C] | ΔTm at 10 µM (YSK1; inhibitor 10 μM) [°C] | ΔTm at 10 µM (PLK4; inhibitor 10 μM) [°C] | ΔTm at 10 µM (DAPK3; inhibitor 10 μM) [°C] | ΔTm at 10 µM (STK33; inhibitor 10 μM) [°C] | ΔTm at 10 µM (AAK1; inhibitor 10 μM) [°C] | Structure (SMILES) | ΔTm at 10 µM (MAP3K5) [°C] | ΔTm at 10 µM (CDKL1) [°C] | ΔTm at 10 µM (YSK1) [°C] | ΔTm at 10 µM (PLK4) [°C] | ΔTm at 10 µM (DAPK3) [°C] | ΔTm at 10 µM (STK33) [°C] | ΔTm at 10 µM (AAK1) [°C]
1 | 0.2 | 0.6 | 0.6 | 0.2 | 0.3 | 0.7 | 0.3 | CCOC(=O)c1c(C(C#N)=CN(C)C)c2ccc(Cl)c(Cl)c2n1C (mixture of isomers) [compound 2, (E/Z)-Ethyl 6,7-Dichloro-3-[1-Cyano-2-(Dimethylamino)Vinyl]-1-Methyl-1H-Indole-2-Carboxylate] |  |  |  |  |  |  | 
2 |  |  |  |  |  |  |  | CCOC(=O)c1c(/C(C#N)=C\N)c2ccc(Cl)c(Cl)c2n1C [KH-CB19, (E)-Ethyl 3-(2-Amino-1-Cyanovinyl)-6,7-Dichloro-1-Methyl-1H-Indole-2-Carboxylate] | 0.8 | 0 | -0.1 | 0.7 | 2.2 | 0.3 | 1.3
3 |  |  |  |  |  |  |  | CCOC(=O)c1c(C(C#N)=CN)c2ccc(Cl)c(Cl)c2n1C (mixture of isomers) [KH-CB20, (E/Z)-Ethyl 3-(2-Amino-1-Cyanovinyl)-6,7-Dichloro-1-Methyl-1H-Indole-2-Carboxylate] | 0.5 | 0.2 | 0.1 | 0.2 | 2.2 | 0.8 | 1.3
4 | 0.8 | 0.2 | 0.2 | 0.5 | 2 | 1.1 | 1.4 | Cn1c2c(Cl)c(Cl)ccc2c2c(C#N)c[nH]c(=O)c21 [compound 3, 7,8-Dichloro-9-Methyl-1-Oxo-2,9-Dihydro-1H-Pyrido[3,4-b]Indole-4-Carbonitrile] |  |  |  |  |  |  | 

Row | Structure (SMILES) | ΔTm at 10 µM (MAP3K5; inhibitor 10 μM) [°C] | ΔTm at 10 µM (CDKL1; inhibitor 10 μM) [°C] | ΔTm at 10 µM (YSK1; inhibitor 10 μM) [°C] | ΔTm at 10 µM (PLK4; inhibitor 10 μM) [°C] | ΔTm at 10 µM (DAPK3; inhibitor 10 μM) [°C] | ΔTm at 10 µM (STK33; inhibitor 10 μM) [°C] | ΔTm at 10 µM (AAK1; inhibitor 10 μM) [°C] | ΔTm at 10 µM (MAP3K5) [°C] | ΔTm at 10 µM (CDKL1) [°C] | ΔTm at 10 µM (YSK1) [°C] | ΔTm at 10 µM (PLK4) [°C] | ΔTm at 10 µM (DAPK3) [°C] | ΔTm at 10 µM (STK33) [°C] | ΔTm at 10 µM (AAK1) [°C]
5 | NC1=NC(=O)/C(=C2\CCNC(=O)c3[nH]c(Br)cc32)N1 [Hymenialdisine, hymenialdisine, reference compound] | 8.7 | 0.6 | 1.7 | 3 | 7.6 | 3.9 | 2.7 |  |  |  |  |  |  | 
